For assay [1], the target named is NAMPT (human, recombinant, C-terminally His-tagged) (Homo sapiens, UniProt P43490). The assay can be described thus: Time-Resolved Fluorescence Resonance Energy Transfer (TR-FRET) Binding Assay of NAMPT. The settings on record: without substrates; 6.8 nM NAMPT, 200 nM probe, 3 hours equilibration. The method in brief: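 Probe displacement by compound was measured with 6.8 nM NAMPT, 200 nM Oregon Green 488-conjugated nicotinamide-competitive inhibitor probe and 1 nM Tb-anti-His antibody in 50 mM HEPES pH 7.5, 100 mM NaCl, 10 mM MgCl2, 1 mM DTT, 1% glycerol, 2% DMSO (final). After 3 h at room temperature, TR-FRET was read; IC50 from four-parameter logistic fit.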
Chain of NAMPT (human, recombinant, C-terminally His-tagged) (P43490 whole entry): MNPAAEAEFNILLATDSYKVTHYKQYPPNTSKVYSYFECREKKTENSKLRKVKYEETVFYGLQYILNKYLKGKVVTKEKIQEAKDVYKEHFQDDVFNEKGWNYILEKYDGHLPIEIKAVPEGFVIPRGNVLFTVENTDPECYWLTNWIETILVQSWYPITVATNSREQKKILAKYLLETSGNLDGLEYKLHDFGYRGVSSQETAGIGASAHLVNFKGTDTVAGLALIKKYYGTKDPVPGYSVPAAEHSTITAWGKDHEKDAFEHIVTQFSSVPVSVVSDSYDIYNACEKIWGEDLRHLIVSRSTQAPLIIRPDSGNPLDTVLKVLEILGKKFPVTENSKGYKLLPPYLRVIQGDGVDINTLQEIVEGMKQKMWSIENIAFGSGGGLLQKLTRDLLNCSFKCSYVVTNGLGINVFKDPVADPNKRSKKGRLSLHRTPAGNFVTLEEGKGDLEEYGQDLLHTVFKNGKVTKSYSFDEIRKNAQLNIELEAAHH

The target in assay [2] is NAMPT (Homo sapiens, UniProt P43490). The assay can be described thus: TR-FRET Binding Assay of NAMPT with PRPP. As to conditions: with 200 μM PRPP and 2.5 mM ATP; 2 nM NAMPT, 2 nM probe, 16 hours equilibration. The method in brief: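 Run in the presence of substrates (200 μM PRPP, 2.5 mM ATP) with final 2 nM NAMPT, 2 nM probe, 1 nM Tb-anti-His antibody and 2% DMSO. Mixtures equilibrated 16 h before TR-FRET measurement so test compounds could be enzymatically modified.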
Chain of NAMPT (P43490 whole entry): as above
A general note: TR-FRET usually uses a lanthanide donor and a delayed reading to cut background.

Assay [3] deals with PC3 cells. The assay can be described thus: NAMPT Cell Proliferation Assay. As to conditions: Homo sapiens, PC-3, 120 h, 5 days incubation, cell viability by Cell Titer Glo. The format is cell-based. In outline: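 IC50 values derive from sigmoidal dose-response fits of percent inhibition of PC3 viability, measured by luminescence after 5 days of compound treatment. Cells (500/well, RPMI containing 10% heat-inactivated FBS) are allowed to attach overnight, and compounds are tested at 10-fold dilutions between 10 μM and 1×10^−5 μM.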
In general terms: Cellular ATP, detected with luciferase, serves as a proxy for viable cell number.

`COCCC(=O)N(CC1CCCO1)c1ncc(C(=O)NCc2ccn3ccnc3c2)s1` (stereo not drawn) [Example 121, N-(imidazo[1,2-a]pyridin-7-ylmethyl)-2-[(3-methoxypropanoyl)(tetrahydrofuran-2-ylmethyl)amino]-1,3-thiazole-5-carboxamide]: the IC50 amounted to 486 nM in assay [1], 0.234 nM in assay [2] and 3.91 nM in assay [3].

Take `O=C(NCc1ccc2nccn2c1)c1cnc(N2CC(c3ccccc3)OC2=O)s1` (stereo not drawn) [Example 122, N-(imidazo[1,2-a]pyridin-6-ylmethyl)-2-(2-oxo-5-phenyl-1,3-oxazolidin-3-yl)-1,3-thiazole-5-carboxamide]: the IC50 in assay [1] came to 255 nM; in assay [2] it was 4.76 nM; in assay [3], 172 nM.

For the compound `Cc1ncc(CC(=O)N(CC2CCCO2)c2ncc(C(=O)NCc3ccc4nccn4c3)s2)s1` (stereo not drawn) [Example 123, N-(imidazo[1,2-a]pyridin-6-ylmethyl)-2-{[(2-methyl-1,3-thiazol-5-yl)acetyl](tetrahydrofuran-2-ylmethyl)amino}-1,3-thiazole-5-carboxamide], the concentration for half-maximal inhibition (IC50) in assay [1] came out at 133 nM; in assay [2], 2.57 nM; in assay [3] it was 7.43 nM.

Consider `Cc1nc(CC(=O)N(CC2CCCO2)c2ncc(C(=O)NCc3ccc4nccn4c3)s2)cs1` (stereo not drawn) [Example 124, N-(imidazo[1,2-a]pyridin-6-ylmethyl)-2-{[(2-methyl-1,3-thiazol-4-yl)acetyl](tetrahydrofuran-2-ylmethyl)amino}-1,3-thiazole-5-carboxamide], for which the figures for the IC50 in assay [1], in assay [2] and in assay [3] were 1100 nM, 2.12 nM and 20.8 nM, respectively.

For `Cc1cc(CC(=O)N(CC2CCCO2)c2ncc(C(=O)NCc3ccc4nccn4c3)s2)on1` (stereo not drawn) [Example 125, N-(imidazo[1,2-a]pyridin-6-ylmethyl)-2-{[(3-methyl-1,2-oxazol-5-yl)acetyl](tetrahydrofuran-2-ylmethyl)amino}-1,3-thiazole-5-carboxamide], the IC50 in assay [1] turned out to be 547 nM; in assay [2], 2.09 nM; in assay [3], 23 nM.

Regarding `O=C(NCc1ccc2nccn2c1)c1cnc(N(CC2CCCO2)C(=O)CCc2cc(Cl)no2)s1` (stereo not drawn) [Example 126, 2-{[3-(3-chloro-1,2-oxazol-5-yl)propanoyl](tetrahydrofuran-2-ylmethyl)amino}-N-(imidazo[1,2-a]pyridin-6-ylmethyl)-1,3-thiazole-5-carboxamide], the figures for the IC50 in assay [1], in assay [2] and in assay [3] were 102 nM, 0.963 nM and 3.96 nM, respectively.

Regarding `COc1cc(CCC(=O)N(CC2CCCO2)c2ncc(C(=O)NCc3ccc4nccn4c3)s2)on1` (stereo not drawn) [Example 127, N-(imidazo[1,2-a]pyridin-6-ylmethyl)-2-{[3-(3-methoxy-1,2-oxazol-5-yl)propanoyl](tetrahydrofuran-2-ylmethyl)amino}-1,3-thiazole-5-carboxamide], the IC50 stood at 52.2 nM in assay [1], 0.522 nM in assay [2] and 2.34 nM in assay [3].

Consider `Cc1noc(C)c1CC(=O)N(CC1CCCO1)c1ncc(C(=O)NCc2ccc3nccn3c2)s1` (stereo not drawn) [Example 128, 2-{[(3,5-dimethyl-1,2-oxazol-4-yl)acetyl](tetrahydrofuran-2-ylmethyl)amino}-N-(imidazo[1,2-a]pyridin-6-ylmethyl)-1,3-thiazole-5-carboxamide], for which the figures for the IC50 in assay [1], in assay [2] and in assay [3] were 30.7 nM, 0.873 nM and 2.21 nM, respectively.

In the case of `Cc1noc(C)c1CCC(=O)N(CC1CCCO1)c1ncc(C(=O)NCc2ccc3nccn3c2)s1` (stereo not drawn) [Example 129, 2-{[3-(3,5-dimethyl-1,2-oxazol-4-yl)propanoyl](tetrahydrofuran-2-ylmethyl)amino}-N-(imidazo[1,2-a]pyridin-6-ylmethyl)-1,3-thiazole-5-carboxamide], the IC50 came out at 11.6 nM in assay [1], 0.634 nM in assay [2] and 2.74 nM in assay [3].

Regarding `Cn1cc(CCC(=O)N(CC2CCCO2)c2ncc(C(=O)NCc3ccc4nccn4c3)s2)cn1` (stereo not drawn) [Example 130, N-(imidazo[1,2-a]pyridin-6-ylmethyl)-2-{[3-(1-methyl-1H-pyrazol-4-yl)propanoyl](tetrahydrofuran-2-ylmethyl)amino}-1,3-thiazole-5-carboxamide], the IC50 in assay [1] is 53.2 nM; in assay [2], 0.981 nM; in assay [3], 6.55 nM.

`Cc1ncsc1CCC(=O)N(CC1CCCO1)c1ncc(C(=O)NCc2ccc3nccn3c2)s1` (stereo not drawn) [Example 131, N-(imidazo[1,2-a]pyridin-6-ylmethyl)-2-{[3-(4-methyl-1,3-thiazol-5-yl)propanoyl](tetrahydrofuran-2-ylmethyl)amino}-1,3-thiazole-5-carboxamide]: the IC50 in assay [1] worked out at 15.2 nM; in assay [2] it was 1.67 nM; in assay [3] it was 2.17 nM.

`O=C(NCc1ccc2nccn2c1)c1cnc(N(CC2CCCO2)C(=O)Cc2nnn[nH]2)s1` (stereo not drawn) [Example 132, N-(imidazo[1,2-a]pyridin-6-ylmethyl)-2-[(tetrahydrofuran-2-ylmethyl)(1H-tetrazol-5-ylacetyl)amino]-1,3-thiazole-5-carboxamide]: the figures for the concentration for half-maximal inhibition (IC50) in assay [1], in assay [2] and in assay [3] were 155 nM, 13.3 nM and 523 nM, respectively.

In the case of `O=C(NCc1ccc2nccn2c1)c1cnc(N(CC2CCCO2)C(=O)CCc2ccno2)s1` (stereo not drawn) [Example 133, N-(imidazo[1,2-a]pyridin-6-ylmethyl)-2-{[3-(1,2-oxazol-5-yl)propanoyl](tetrahydrofuran-2-ylmethyl)amino}-1,3-thiazole-5-carboxamide], the IC50 in assay [1] is 67 nM; in assay [2] it was 0.709 nM; in assay [3], 2.16 nM.

`O=C(NCc1ccc2nccn2c1)c1cnc(N(CC2CCCO2)C(=O)Cc2ccon2)s1` (stereo not drawn) [Example 134, N-(imidazo[1,2-a]pyridin-6-ylmethyl)-2-[(1,2-oxazol-3-ylacetyl)(tetrahydrofuran-2-ylmethyl)amino]-1,3-thiazole-5-carboxamide]: the IC50 in assay [1] was found to be 303 nM; in assay [2], 1.49 nM; in assay [3] it was 6.54 nM.

Take `O=C(NCc1ccc2nccn2c1)c1cnc(N(CC2CCCO2)C(=O)CCc2cnoc2)s1` (stereo not drawn) [Example 135, N-(imidazo[1,2-a]pyridin-6-ylmethyl)-2-{[3-(1,2-oxazol-4-yl)propanoyl](tetrahydrofuran-2-ylmethyl)amino}-1,3-thiazole-5-carboxamide]: the results for the IC50 in assay [1], in assay [2] and in assay [3] were 73.8 nM, 1.27 nM and 6.36 nM, respectively.

In the case of `O=C(NCc1ccc2nccn2c1)c1cnc(N(CC2CCCO2)C(=O)CCc2nccs2)s1` (stereo not drawn) [Example 136, N-(imidazo[1,2-a]pyridin-6-ylmethyl)-2-{(tetrahydrofuran-2-ylmethyl)[3-(1,3-thiazol-2-yl)propanoyl]amino}-1,3-thiazole-5-carboxamide], the figures for the half-maximal inhibitory concentration (IC50) in assay [1], in assay [2] and in assay [3] were 72.7 nM, 0.512 nM and 3.05 nM, respectively.

With `CC(C)CC(=O)Nc1ncc(C(=O)NCc2ccc3nccn3c2)s1` [Example 137, N-(imidazo[1,2-a]pyridin-6-ylmethyl)-2-[(3-methylbutanoyl)amino]-1,3-thiazole-5-carboxamide], the results for the IC50 in assay [1], in assay [2] and in assay [3] were 315 nM, 7.21 nM and 225 nM, respectively.

Consider `COCCNC(=O)N(CC1CCCO1)c1ncc(C(=O)NCc2ccn3ccnc3c2)s1` (stereo not drawn) [Example 138, N-(imidazo[1,2-a]pyridin-7-ylmethyl)-2-{[(2-methoxyethyl)carbamoyl](tetrahydrofuran-2-ylmethyl)amino}-1,3-thiazole-5-carboxamide], for which the IC50 amounted to 80.7 nM in assay [1], 0.424 nM in assay [2] and 3.83 nM in assay [3].

Take `COCCC(=O)N(CC1CCOC1)c1ncc(C(=O)NCc2ccc3nccn3c2)s1` (stereo not drawn) [Example 139, N-(imidazo[1,2-a]pyridin-6-ylmethyl)-2-[(3-methoxypropanoyl)(tetrahydrofuran-3-ylmethyl)amino]-1,3-thiazole-5-carboxamide]: the IC50 in assay [1] stood at 582 nM; in assay [2], 0.173 nM; in assay [3], 12.2 nM.

As to `O=C(NCc1ccc2nccn2c1)c1cnc(N(CC2CCOC2)C(=O)C2CCOCC2)s1` (stereo not drawn) [Example 140, N-(imidazo[1,2-a]pyridin-6-ylmethyl)-2-[(tetrahydrofuran-3-ylmethyl)(tetrahydro-2H-pyran-4-ylcarbonyl)amino]-1,3-thiazole-5-carboxamide], the IC50 in assay [1] turned out to be 1340 nM; in assay [2] it was 0.927 nM; in assay [3] it was 65.5 nM.

On to `COCCNC(=O)N(CC1CCOC1)c1ncc(C(=O)NCc2ccc3nccn3c2)s1` (stereo not drawn) [Example 141, N-(imidazo[1,2-a]pyridin-6-ylmethyl)-2-{[(2-methoxyethyl)carbamoyl](tetrahydrofuran-3-ylmethyl)amino}-1,3-thiazole-5-carboxamide], for which the IC50 came out at 2110 nM in assay [1], 0.757 nM in assay [2] and 77.8 nM in assay [3].

On to `COCCC(=O)N(CC1CCOCC1)c1ncc(C(=O)NCc2ccc3nccn3c2)s1` [Example 142, N-(imidazo[1,2-a]pyridin-6-ylmethyl)-2-[(3-methoxypropanoyl)(tetrahydro-2H-pyran-4-ylmethyl)amino]-1,3-thiazole-5-carboxamide], for which the results for the IC50 in assay [1], in assay [2] and in assay [3] were 1430 nM, 3.05 nM and 18.2 nM, respectively.

The term IC50 denotes the point on the concentration scale where inhibition reaches its midpoint.

For the origin of these results see patent publication US9187472B2 (AbbVie Inc., priority 2012, dated 2015).
